According to patent US20240217966A1, “PHARMACEUTICAL COMPOSITION CONTAINING GLP-1 RECEPTOR AGONIST HAVING FUSED RING” (Shionogi & Co., Ltd., priority 2021, published 2024):
Where “and” joins values, the source holds several entries; their conditions need not be identical. Identical values can stand only once. Like-named read-outs stand apart in the source and are kept apart here.

Biological target: T1, Human GLP-1 receptor (Homo sapiens, UniProt P43220)
T1 construct: expressed in transfected cells
Assay: Measurement of GLP-1 receptor agonist activity (cAMP assay)
Type: cell-based
Settings: cAMP increase in GLP-1 R/CHO-K1 cells, 2 nM human GLP-1 (7-36) = 100%, DMSO only = 0%
In short: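 hGLP-1R/CHO-K1 cells in HBSS with 0.1% BSA, 20 mM HEPES, 0.1 mM IBMX and 0.2 mM RO20-1724 exposed to compound plus forskolin (400 μM stock) for 1 h at 37 °C. Intracellular cAMP read by HTRF (cAMP-d2/anti-cAMP cryptate, 1 h at room temperature).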

[1] = CHO-K1, maximum effect, read-out: Emax

T1 sequence (P43220 24-463): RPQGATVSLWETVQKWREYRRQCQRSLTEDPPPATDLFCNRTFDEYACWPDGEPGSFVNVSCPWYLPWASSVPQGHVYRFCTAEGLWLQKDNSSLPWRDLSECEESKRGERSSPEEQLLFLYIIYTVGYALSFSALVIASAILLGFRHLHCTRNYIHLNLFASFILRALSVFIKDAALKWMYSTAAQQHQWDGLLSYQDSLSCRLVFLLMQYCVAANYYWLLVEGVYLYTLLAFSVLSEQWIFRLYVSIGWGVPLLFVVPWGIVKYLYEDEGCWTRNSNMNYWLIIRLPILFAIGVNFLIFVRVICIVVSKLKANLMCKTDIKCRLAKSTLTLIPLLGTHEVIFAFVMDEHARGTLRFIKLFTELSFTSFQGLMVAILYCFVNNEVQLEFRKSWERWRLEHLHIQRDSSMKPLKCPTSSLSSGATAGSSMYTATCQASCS

SMILES	Emax [1] [%]	EC50	Emax (maximum effect) [%]
C[C@H]1c2cc(OCc3ccc(C4CC4)cc3)c(Cl)cc2CCN1Cc1nc2c(F)cc(C(=O)O)cc2n1C[C@@H]1CCO1 [Compound I-333]	116	8.05 nM	
COc1cc(Cl)ccc1COc1cc2c(cc1Cl)CCN(Cc1nc3c(F)cc(C(=O)O)cc3n1C[C@@H]1CCO1)[C@H]2C [Compound I-334]	114	0.223 nM	
C[C@H]1c2cc(OCc3ccc(F)cc3F)c(Cl)cc2CCN1Cc1nc2c(F)cc(C(=O)O)cc2n1C[C@@H]1CCO1 [Compound I-335]	98	1.23 nM	
C[C@H]1c2cc(OCc3ccc(Cl)cc3F)c(Cl)cc2CCN1Cc1nc2c(F)cc(C(=O)O)cc2n1C[C@@H]1CCO1 [Compound I-336]	100	0.696 nM	
C[C@H]1c2cc(OCc3ccc(Cl)cc3Cl)c(Cl)cc2CCN1Cc1nc2c(F)cc(C(=O)O)cc2n1C[C@@H]1CCO1 [Compound I-337]	104	0.325 nM	
C[C@H]1c2cc(OCc3cc(F)c(Cl)cc3F)c(Cl)cc2CCN1Cc1nc2c(F)cc(C(=O)O)cc2n1C[C@@H]1CCO1 [Compound I-338]	100	1.27 nM	
C[C@H]1c2cc(OCc3c(F)cc(Cl)cc3F)c(Cl)cc2CCN1Cc1nc2c(F)cc(C(=O)O)cc2n1C[C@@H]1CCO1 [Compound I-339]	105	0.377 nM	
COc1cc(C(=O)O)cc2c1nc(CN1CCc3cc(Cl)c(OCc4ccc(C)cc4)cc3[C@@H]1C)n2C[C@@H]1CCO1 [Compound I-340]	105	0.31 nM	
COc1cc(C(=O)O)cc2c1nc(CN1CCc3cc(Cl)c(OCc4ccc(Cl)cc4)cc3[C@@H]1C)n2C[C@@H]1CCO1 [Compound I-341]	125	0.236 nM	
COc1cc(C(=O)O)cc2c1nc(CN1CCc3cc(Cl)c(OCc4ccc(C5CC5)cc4)cc3[C@@H]1C)n2C[C@@H]1CCO1 [Compound I-342]	97.3	1.95 nM	
COc1cc(Cl)ccc1COc1cc2c(cc1Cl)CCN(Cc1nc3c(OC)cc(C(=O)O)cc3n1C[C@@H]1CCO1)[C@H]2C [Compound I-343]	111	0.063 nM	
COc1cc(C(=O)O)cc2c1nc(CN1CCc3cc(Cl)c(OCc4ccc(Cl)cc4F)cc3[C@@H]1C)n2C[C@@H]1CCO1 [Compound I-344]	110	0.0824 nM	
COc1cc(C(=O)O)cc2c1nc(CN1CCc3cc(Cl)c(OCc4ccc(Cl)cc4Cl)cc3[C@@H]1C)n2C[C@@H]1CCO1 [Compound I-345]	129	0.096 nM	
COc1cc(C(=O)O)cc2c1nc(CN1CCc3cc(Cl)c(OCc4cc(F)c(Cl)cc4F)cc3[C@@H]1C)n2C[C@@H]1CCO1 [Compound I-346]	117	0.354 nM	
Cc1ccc(COc2nc3c(cc2C(F)(F)F)CCN(Cc2nc4ccc(C(=O)O)nc4n2C[C@@H]2CCO2)[C@H]3C)cc1 [Compound I-347]	110	0.241 nM	
C[C@H]1c2nc(OCc3ccc(Cl)cc3)c(C(F)(F)F)cc2CCN1Cc1nc2ccc(C(=O)O)nc2n1C[C@@H]1CCO1 [Compound I-348]	129	0.206 nM	
C[C@H]1c2nc(OCc3ccc(C4CC4)cc3)c(C(F)(F)F)cc2CCN1Cc1nc2ccc(C(=O)O)nc2n1C[C@@H]1CCO1 [Compound I-349]	117	1.27 nM	
COc1cc(Cl)ccc1COc1nc2c(cc1C(F)(F)F)CCN(Cc1nc3ccc(C(=O)O)nc3n1C[C@@H]1CCO1)[C@H]2C [Compound I-350]	113	0.0964 nM	
C[C@H]1c2nc(OCc3ccc(Cl)cc3Cl)c(C(F)(F)F)cc2CCN1Cc1nc2ccc(C(=O)O)nc2n1C[C@@H]1CCO1 [Compound I-351]	121	0.156 nM	
C[C@H]1c2nc(OCc3cc(F)c(Cl)cc3F)c(C(F)(F)F)cc2CCN1Cc1nc2ccc(C(=O)O)nc2n1C[C@@H]1CCO1 [Compound I-352]	113	0.122 nM	
Cc1ccc(COc2nc3c(cc2C(F)(F)F)CCN(Cc2nc4ccc(C(=O)O)c(F)c4n2C[C@@H]2CCO2)[C@H]3C)cc1 [Compound I-353]	115	0.0558 nM	
COc1ccc(COc2nc3c(cc2C(F)(F)F)CCN(Cc2nc4ccc(C(=O)O)c(F)c4n2C[C@@H]2CCO2)[C@H]3C)cc1 [Compound I-354]	122	0.139 nM	

SMILES	Emax [1] [%]	EC50	Emax (maximum effect) [%]
C[C@H]1c2nc(OCc3ccc(Cl)cn3)c(C(F)(F)F)cc2CCN1Cc1nc2ccc(C(=O)O)c(F)c2n1C[C@@H]1CCO1 [Compound I-355]	119	0.102 nM	
C[C@H]1c2nc(OCc3ccc(C4CC4)cc3)c(C(F)(F)F)cc2CCN1Cc1nc2ccc(C(=O)O)c(F)c2n1C[C@@H]1CCO1 [Compound I-356]	118	0.25 nM	
COc1cc(Cl)ccc1COc1nc2c(cc1C(F)(F)F)CCN(Cc1nc3ccc(C(=O)O)c(F)c3n1C[C@@H]1CCO1)[C@H]2C [Compound I-357]	123	0.0425 nM	
C[C@H]1c2nc(OCc3ccc(F)cc3F)c(C(F)(F)F)cc2CCN1Cc1nc2ccc(C(=O)O)c(F)c2n1C[C@@H]1CCO1 [Compound I-359]	123	0.0474 nM	
C[C@H]1c2nc(OCc3ccc(OC(F)F)cc3F)c(C(F)(F)F)cc2CCN1Cc1nc2ccc(C(=O)O)c(F)c2n1C[C@@H]1CCO1 [Compound I-360]	115	0.104 nM	
C[C@H]1c2nc(OCc3c(F)cc(F)cc3F)c(C(F)(F)F)cc2CCN1Cc1nc2ccc(C(=O)O)c(F)c2n1C[C@@H]1CCO1 [Compound I-361]	108	0.0778 nM	
C[C@H]1c2nc(OCc3c(F)cc(Cl)cc3F)c(C(F)(F)F)cc2CCN1Cc1nc2ccc(C(=O)O)c(F)c2n1C[C@@H]1CCO1 [Compound I-362]	133	0.0408 nM	
Cc1ccc(COc2nc3c(cc2C(F)(F)F)CCN(Cc2nc4c(F)cc(C(=O)O)cc4n2C[C@@H]2CCO2)[C@H]3C)cc1 [Compound I-363]	115	0.0911 nM	
COc1ccc(COc2nc3c(cc2C(F)(F)F)CCN(Cc2nc4c(F)cc(C(=O)O)cc4n2C[C@@H]2CCO2)[C@H]3C)cc1 [Compound I-364]	118	0.148 nM	
C[C@H]1c2nc(OCc3ccc(Cl)cn3)c(C(F)(F)F)cc2CCN1Cc1nc2c(F)cc(C(=O)O)cc2n1C[C@@H]1CCO1 [Compound I-365]	115	0.0736 nM	
C[C@H]1c2nc(OCc3ccc(C4CC4)cc3)c(C(F)(F)F)cc2CCN1Cc1nc2c(F)cc(C(=O)O)cc2n1C[C@@H]1CCO1 [Compound I-366]	114	0.421 nM	
COc1cc(Cl)ccc1COc1nc2c(cc1C(F)(F)F)CCN(Cc1nc3c(F)cc(C(=O)O)cc3n1C[C@@H]1CCO1)[C@H]2C [Compound I-367]	107	0.0214 nM	
C[C@H]1c2nc(OCc3ccccc3Cl)c(C(F)(F)F)cc2CCN1Cc1nc2c(F)cc(C(=O)O)cc2n1C[C@@H]1CCO1 [Compound I-368]	120	0.136 nM and 0.2 nM	102
C[C@H]1c2nc(OCc3ccc(F)cc3F)c(C(F)(F)F)cc2CCN1Cc1nc2c(F)cc(C(=O)O)cc2n1C[C@@H]1CCO1 [Compound I-369]	112	0.0526 nM	
C[C@H]1c2nc(OCc3ccc(OC(F)F)cc3F)c(C(F)(F)F)cc2CCN1Cc1nc2c(F)cc(C(=O)O)cc2n1C[C@@H]1CCO1 [Compound I-370]	109	0.143 nM	
C[C@H]1c2nc(OCc3c(F)cc(F)cc3F)c(C(F)(F)F)cc2CCN1Cc1nc2c(F)cc(C(=O)O)cc2n1C[C@@H]1CCO1 [Compound I-371]	122	0.0495 nM	
C[C@H]1c2nc(OCc3c(F)cc(Cl)cc3F)c(C(F)(F)F)cc2CCN1Cc1nc2c(F)cc(C(=O)O)cc2n1C[C@@H]1CCO1 [Compound I-372]	117	0.023 nM	
COc1cc(C(=O)O)cc2c1nc(CN1CCc3cc(C(F)(F)F)c(OCc4ccc(C)cc4)nc3[C@@H]1C)n2C[C@@H]1CCO1 [Compound I-373]	122	0.0194 nM	
COc1cc(C(=O)O)cc2c1nc(CN1CCc3cc(C(F)(F)F)c(OCc4ccc(Cl)cc4)nc3[C@@H]1C)n2C[C@@H]1CCO1 [Compound I-374]	100	0.0208 nM	
COc1cc(C(=O)O)cc2c1nc(CN1CCc3cc(C(F)(F)F)c(OCc4ccc(C5CC5)cc4)nc3[C@@H]1C)n2C[C@@H]1CCO1 [Compound I-375]	103	0.0814 nM	
COc1cc(Cl)ccc1COc1nc2c(cc1C(F)(F)F)CCN(Cc1nc3c(OC)cc(C(=O)O)cc3n1C[C@@H]1CCO1)[C@H]2C [Compound I-376]	106	0.0152 nM	
